Consider one compound from patent US20250099369A1, “TOPICAL DELIVERY COMPOSITIONS COMPRISING NON-STEROIDAL ANTI-INFLAMMATORY DRUGS” (Andros Pharmaceuticals Co., LTD., priority 2023, published 2025).

The data set is described as follows: physchem. The format is physicochemical. Conditions: 25 °C, aqueous buffer, thermodynamic from solid, Diclofenac Solubility. As to the method: In the aqueous solution containing 1% boric acid, add SPC (0%, 1%, 3%, 5%, 8%, 10%, 13%, 15%, 18%, 20%) and urea (0%, 5%, 10%, 20%, 30%, 40%, 50%) and stir until complete dissolution. A total of 70 sample solutions with different SPC and urea concentrations were obtained.
An excess of diclofenac sodium was added to each set of sample solutions and stirred overnight at 25° C. The sample solution was centrifuged at 12,000 rpm for 5 minutes, and a portion of the supernatant was diluted with appropriate diluent and analyzed by HPLC, to determine the solubility of diclofenac sodium in aqueous solutions containing different concentrations of SPC and urea. The results are presented in Table1.

The structures appear in SMILES notation.

For orientation: solubility means the dissolved amount per volume that the medium holds. The low end stands for little dissolved substance, the high end for much dissolved substance.

`O=C(O)Cc1ccccc1Nc1c(Cl)cccc1Cl` [diclofenac sodium] yielded a solubility of 19.7 mg/mL.
